In patent publication US11492341B2, “ACLY inhibitors and uses thereof” (Nimbus Artemis, Inc., priority 2018, dated 2022) one finds IC50 data, which are given here for 21 compounds.

The structures appear in SMILES notation.

Chain of ACL (P53396 whole entry, species assumed): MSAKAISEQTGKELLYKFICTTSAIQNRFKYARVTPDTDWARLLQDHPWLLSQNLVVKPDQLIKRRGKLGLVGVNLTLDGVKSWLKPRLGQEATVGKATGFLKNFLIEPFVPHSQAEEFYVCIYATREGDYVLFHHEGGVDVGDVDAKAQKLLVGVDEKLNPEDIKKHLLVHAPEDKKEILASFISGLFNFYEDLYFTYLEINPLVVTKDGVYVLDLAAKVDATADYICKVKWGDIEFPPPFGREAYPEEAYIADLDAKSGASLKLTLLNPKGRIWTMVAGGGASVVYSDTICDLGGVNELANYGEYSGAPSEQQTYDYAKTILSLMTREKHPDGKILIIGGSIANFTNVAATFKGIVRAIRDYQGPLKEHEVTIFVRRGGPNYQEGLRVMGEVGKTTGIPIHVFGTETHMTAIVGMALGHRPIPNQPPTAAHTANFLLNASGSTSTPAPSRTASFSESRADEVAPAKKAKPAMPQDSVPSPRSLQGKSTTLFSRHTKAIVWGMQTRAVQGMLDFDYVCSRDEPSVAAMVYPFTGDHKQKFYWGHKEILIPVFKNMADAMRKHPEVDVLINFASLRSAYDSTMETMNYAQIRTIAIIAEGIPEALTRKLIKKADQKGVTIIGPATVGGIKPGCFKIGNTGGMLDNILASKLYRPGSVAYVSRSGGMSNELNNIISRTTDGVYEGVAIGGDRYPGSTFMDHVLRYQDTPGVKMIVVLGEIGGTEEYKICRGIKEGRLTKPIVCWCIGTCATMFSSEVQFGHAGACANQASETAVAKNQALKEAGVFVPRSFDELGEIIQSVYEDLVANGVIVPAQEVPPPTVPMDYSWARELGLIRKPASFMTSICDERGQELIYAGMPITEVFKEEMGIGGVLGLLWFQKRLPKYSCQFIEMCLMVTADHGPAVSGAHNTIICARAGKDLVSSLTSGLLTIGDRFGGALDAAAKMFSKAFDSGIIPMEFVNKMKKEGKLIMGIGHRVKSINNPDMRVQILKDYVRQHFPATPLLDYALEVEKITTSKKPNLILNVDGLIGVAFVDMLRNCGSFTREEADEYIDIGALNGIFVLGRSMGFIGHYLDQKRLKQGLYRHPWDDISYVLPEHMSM

The assay addresses ACL (Homo sapiens (Human), UniProt P53396). The experiment in a line: ADP-Glo Assay. The class given is biochemical. Conditions: 3 nM ACL, 15 μM ATP, 3 μM CoA, 300 μM Citrate. On the procedure:
Example 28. ADP-Glo Assay
Compounds of the present invention were evaluated in an ADP-GLO assay as follows: a) Dilute cpd 1:3 in succession in DMSO by hand for each cpds for 12 pts b) Add 0.1 μL diluted cpd solution to assay plate, each dose with 2 replicates c) Centrifuge 1000 RPM for 1 min d) Add 5 μL ACL working solution to 384-well assay plate, centrifuge 1000 RPM for 1 min e) Incubate at 25° C. for 15 min f) Add 5 μL substrate working solution to initiate reaction g) Final ACL reaction concentrations: 3 nM ACL, 15 μM ATP, 3 μM CoA, 300 μM Citrate, 0.01% Brij35, 4 mM DTT, 1% DMSO; h) Reference final conc: 30 uM starting Conc, 3× dilution, 11+0 points. Test cpd conc: 30/100 uM starting Conc, 3× dilution, 11+0 points. i) Incubate at 25° C. for 60 min j) Add 10 μL ADP Glo reagent, centrifuge 1000 RPM for 1 min k) Incubate at 25° C. for 40 min l) Add 20 μL kinase detection reagent, centrifuge 1000 RPM for 1 min m) Incubate at 25° C. for 40 min n) Read on Envision for US LUM as RLU
On the technique in general: ADP-Glo first removes unused ATP, then detects ADP through luciferase.
What is called IC50 is the midpoint of a concentration-inhibition curve. Read a high IC50 as a need for much substance. For `O=S(=O)(c1cc(Br)cc(Cl)c1O)n1c(-c2cc3ccccc3s2)cc2cc(Cl)ccc21` [I-144], the IC50 is 0.5 to 20 µM.
The value for `O=C(c1ccc2cc(-c3ccccc3)n(S(=O)(=O)c3cc(Br)cc(Cl)c3O)c2c1)N1CCC1` [I-145, Azetidin-1-yl(1-((5-bromo-3-chloro-2-hydroxyphenyl)sulfonyl)-2-phenyl-1H-indol-6-yl)methanone] was 0.5 to 20 µM.
Take `O=S(=O)(c1cc(Br)cc(Cl)c1O)n1c(-c2ccc(OC(F)(F)F)nc2)cc2cc(Cl)ccc21` [I-146]: the IC50 was 0.5 to 20 µM.
The value for `Cc1cn(S(=O)(=O)c2cc(Br)cc(Cl)c2O)c2ccc(Cl)cc12` [I-147] was 0.5 to 20 µM; that for `COC(=O)c1cc2c(cc1Cl)cc(C)n2S(=O)(=O)c1cc(Br)cc(Cl)c1O` [I-148] was 0.5 to 20 µM.
On to `Cc1cc2cc(Cl)ccc2n1S(=O)(=O)c1cc(Cl)c(O)cc1Br` [I-149], for which the IC50 is 0.5 to 20 µM.
The value for `COCOc1cc2c(cc1Cl)cc(C)n2S(=O)(=O)c1cc(Br)cc(Cl)c1O` [I-150] was 0.5 to 20 µM; that for `O=S(=O)(c1cc(Br)cc(Cl)c1O)n1c(Cc2ccccc2OC(F)(F)F)cc2cc(Cl)ccc21` [I-151] was 0.5 to 20 µM.
The value for `O=S(=O)(c1cc(Br)cc(Cl)c1O)n1c(-c2cnc(C(F)(F)F)nc2)cc2cc(Cl)ccc21` [I-152] was 0.5 to 20 µM.
The value for `O=C(NO)c1ccc2cc(-c3ccccc3)n(S(=O)(=O)c3cc(Br)cc(Cl)c3O)c2c1` [I-154] was 0.5 to 20 µM.
The compound `Cc1nc(=O)c2cc(Cl)ccc2n1S(=O)(=O)c1cc(Br)cc(Cl)c1O` [I-155] gave an IC50 not below 20 µM.
The value for `Cc1cc2cc(Cl)ccc2n1S(=O)(=O)c1cc(-c2cncs2)cc(Cl)c1O` [I-156] was 0.5 to 20 µM; that for `O=C(O)c1cc2c(cc1Cl)cc(-c1cncnc1)n2S(=O)(=O)c1cc(Br)cc(Cl)c1O` [I-157] was 0.5 to 20 µM; that for `Cc1cc2cc(Cl)c(O)cc2n1S(=O)(=O)c1cc(Br)cc(Cl)c1O` [I-158] was 0.5 to 20 µM.
The value for `O=S(=O)(c1cc(Br)cc(Cl)c1O)n1cc(-c2cncs2)c2cc(Cl)ccc21` [I-159] was less than 0.5 µM; that for `Cc1cc2cc(Cl)c(C(=O)O)cc2n1S(=O)(=O)c1cc(Br)cc(Cl)c1O` [I-160] was 0.5 to 20 µM; that for `N#Cc1ccc2c(c1)cc(-c1cc3ccccc3s1)n2S(=O)(=O)c1cc(Br)cc(Cl)c1O` [I-161] was 0.5 to 20 µM.
The value for `O=C(c1cc2cc(Cl)ccc2n1S(=O)(=O)c1cc(Br)cc(Cl)c1O)N1CCC1` [I-162] was 0.5 to 20 µM; that for `O=C(c1cn(S(=O)(=O)c2cc(Br)cc(Cl)c2O)c2ccc(Cl)cc12)N1CCC1` [I-163] was 0.5 to 20 µM.
In turn, `CCOC(=O)c1cc2cc(Cl)ccc2n1S(=O)(=O)c1ccc(-c2ccccc2)cc1F` [I-164] had an IC50 not below 20 µM.
The value for `COc1c(F)cc2cc(C)n(S(=O)(=O)c3cc(Br)cc(Cl)c3O)c2c1F` [I-165] was 0.5 to 20 µM.
